From US8877785B2, “Methods and compositions for enhancing sensitivity of cytotoxic drugs with timely combinatorial therapy with carboxyamidotriazole orotate” (Tactical Therapeutics Inc, priority 2009, dated 2014)

Assays:
[1] = given in combination (CTO Q1Dx14, temozolomide Q4Dx3); MTD = dose without death and no more than 20% mean body weight loss
Excerpt: The purpose of the first experiment was to evaluate the tolerance of female athymic NCr-nu/nu mice to the combination treatment of 5-amino-1-(4-(4-chlorobenzoyl)-3,5-dichlorobenzyl)-1,2,3-triazole-4-carboxyamide orotate (CTO) and a cytotoxic chemotherapeutic agent selected from the group consisting of temozolomide, 5-FU, methotrexate, doxorubicin and daunorubicin.
Polyethylene glycol (PEG 400, MW 400) was purchased from Aldrich Chemistry. Deionized water was purchased from LabChem, Inc. Klucel (hydroxypropyl cellulose) was purchased from Aldrich. Saline (physiological saline solution, for animal use only) was purchased from Nova-Teck, Inc. Tween 80 (T80, polysorbate 80) was purchased from Fisher Scientific. CTO (MW 580.76) was stored at room temperature protected from light upon receipt. CTO was formulated once a week (on Days 1 and 8) at a concentration of 51.3 mg/mL in 40% PEG 400 in deionized water. Temozolomide® (temozolomide, Schering Co., 20 mg/capsule) was prepared on each day treatment by adding several drops of T80 to the powder, and then adding 0.3% Klucel in saline to yield a concentration of 4.5 mg/mL.
The study consisted of four groups of five mice per group for a total of 25 mice on Day 1. […]

[2] = system: human LOX IMVI melanoma xenografts; test: Antitumor activity against SC-implanted human LOX IMVI melanoma xenografts (experiment TTI-6A); format: in vivo, mice
Excerpt: The purpose of the experiment TTI-6A was to evaluate the antitumor activity of CTO when administered in combination with temozolomide against subcutaneously (SC)-implanted human LOX IMVI melanoma xenografts in female, athymic NCr-nu/nu mice. Female six-week-old athymic NCr-nu/nu mice were purchased from Charles River Laboratories (Wilmington, Mass.). Human LOX IMVI melanoma cells were maintained as an ascites passage. […] The day of tumor fragment implantation was designated as Day 0.
(§1) CTO was administered to mice by exact individual animal's body weight on each day of treatment, with the injection volume being 0.1 mL/10 g body weight. temozolomide dosing formulations were administered to mice within 30 minutes of formulation by exact individual body weight on each day of treatment, with the injection volume being 0.2 mL/10 g body weight.
The study consisted of nine groups of ten mice per group. Animals in Group 1 were treated with the CTO vehicle (40% PEG 400 in deionized water) on a Q1Dx14 schedule (Days 6-19) in combination with the temozolomide vehicle (0.3% Klucel in saline), which was administered on a Q4Dx3 schedule (Days 6, 10, and 14). Animals in Groups 2 and 3 were treated with CTO at doses of 513 and 342 mg/kg/dose, respectively, on a Q1Dx14 schedule. Animals in Groups 4 and 5 were treated with temozolomide at, doses of 90 and 60 mg/kg/dose, respectively, on a Q4Dx3 schedule. Animals in Groups 6 and 7 were treated with CTO on a Q1Dx14 schedule at doses of 513 and 342 mg/kg/dose, respectively, in combination with temozolomide which was administered at a dose of 90 mg/kg/dose on a Q4Dx3 schedule. Animals in Groups 8 and 9 were treated with CTO on a Q1Dx14 schedule at doses of 513 and 342 mg/kg/dose, respectively, in combination with temozolomide which was administered at a dose of 60 mg/kg/dose on a Q4Dx3 schedule.
The SC tumors were measured and the animals were weighed two times a week. Tumor volume was determined by the formula for an ellipsoid sphere: L×W^2/2=mm^3, where L and W refer to the larger and smaller perpendicular dimensions collected at each measurement. The experiment was terminated on Day 35.
Parameters Evaluated—Number of nonspecific deaths, number of complete tumor regressions, number of tumor-free survivors on Day 35, and the median time for the tumors to reach four tumor mass doublings were determined. Comparison of the median tumor weight in the treatment groups to the median tumor weight in the control group (T/C×100%) on Day 19 (the last day of treatment with CTO and the last day of data collection when mice in the control group were still alive) was used for an additional evaluation of the antitumor efficacy of the combination treatments. […] FIG. 1.

[3] = Body weight loss and deaths in LOX IMVI tumor-bearing athymic NCr-nu/nu mice (experiment TTI-6A); format: in vivo
Excerpt: The purpose of the experiment TTI-6A was to evaluate the antitumor activity of CTO when administered in combination with temozolomide against subcutaneously (SC)-implanted human LOX IMVI melanoma xenografts in female, athymic NCr-nu/nu mice. Female six-week-old athymic NCr-nu/nu mice were purchased from Charles River Laboratories (Wilmington, Mass.). Human LOX IMVI melanoma cells were maintained as an ascites passage. Each mouse was implanted SC near the right flank with one million (1×10^6) of the LOX IMVI human melanoma cell from an in vivo passage using a 23 g needle. The day of tumor fragment implantation was designated as Day 0. Individual tumors of 90 animals grew to 126-198 mg in weight (126-198 mm^3 in size) on Day 6 after tumor implantation (Jul. 20, 2011), the day of treatment initiation. Those animals selected with tumors in the proper size range were assigned to nine treatment groups so that the mean tumor weights in all groups on Day 6 were as close to each other as possible (mean tumor weights being 165 or 166 mg, median tumor weights ranging from 162 to 176 mg).
as §1
The study consisted of nine groups of ten mice per group. […]
The SC tumors were measured and the animals were weighed two times a week. Tumor volume was determined by the formula for an ellipsoid sphere: L×W^2/2=mm^3, where L and W refer to the larger and smaller perpendicular dimensions collected at each measurement. […]
Parameters Evaluated—Number of nonspecific deaths, number of complete tumor regressions, number of tumor-free survivors on Day 35, and the median time for the tumors to reach four tumor mass doublings were determined. […]

[4] = Group 4: temozolomide 90 mg/kg/dose oral Q4Dx3 alone
[5] = Group 5: temozolomide 60 mg/kg/dose oral Q4Dx3 alone

Row | Molecule | maximum tolerated dose (MTD) [1] | inhibition of the growth of the human LOX IMVI melanoma xenografts (in words) ([2]; CTO 513 or 342 mg/kg/dose oral for fourteen consecutive days) | median tumor growth delay ([2]; Group 2: CTO 513 mg/kg/dose Q1Dx14 alone) | T/C value (median tumor weight treated/control x100%) on Day 19 ([2]; Group 2: CTO 513 mg/kg/dose oral Q1Dx14 alone) | median tumor growth delay ([2]; Group 3: CTO 342 mg/kg/dose Q1Dx14 alone) | T/C value (median tumor weight treated/control x100%) on Day 19 ([2]; Group 3: CTO 342 mg/kg/dose oral Q1Dx14 alone) | delay in the growth of the median tumor ([2]; Group 4: temozolomide 90 mg/kg/dose Q4Dx3 alone) | T/C value (median tumor weight treated/control x100%) on Day 19 [2, 4] | median time for the tumor to reach four tumor mass doublings [2, 4] | delay in the growth of the median tumor ([2]; Group 5: temozolomide 60 mg/kg/dose Q4Dx3 alone) | T/C value (median tumor weight treated/control x100%) on Day 19 [2, 5] | median time for the tumor to reach four tumor mass doublings [2, 5] | maximum mean body weight loss [3, 4] | maximum mean body weight loss [3, 5] | maximum mean body weight loss ([3]; Groups 4 and 5: temozolomide 90 and 60 mg/kg/dose oral Q4Dx3 alone, both groups)
1 | 5-amino-1-(4-(4-chlorobenzoyl)-3,5-dichlorobenzyl)-1,2,3-triazole-4-carboxyamide orotate [CTO] | above 513 mg/kg/dose | measurable inhibition | 3.1 days | 65% | 1.6 days | 70% | – | – | – | – | – | – | – | – | –
2 | Cn1nnc2c(C(N)=O)ncn2c1=O [temozolomide] | > 90 mg/kg/dose | – | – | – | – | – | 8.5 days | 36% | 17.2 days | 3.6 days | 57% | 12.3 days | 7% | 7% | 1.6 to 1.8 g
